# Experimental data as given in patent publication US11059845B2, “Immune stimulating macrolides” (ISR IMMUNE SYSTEM REGULATION HOLDING AB (PUBL), priority 2017, dated 2021).
# Key:
# [1] = test system: Bifidobacterium longum subsp. infantis; test: Minimum Inhibitory Concentration (MIC) assay; assay type: cell-based; settings: anaerobic, 37° C., 18 h
# Description: (§1) The bioactivity of macrolide compounds against 4 strains of common gut bacteria (Escherichia coli, Streptococcus salivarius subsp. salivarius, Lactobacillus casei and Bifidobacterium longum subsp. infantis) and common mammalian skin isolate Micrococcus luteus, was assessed using the Minimum Inhibitory Concentration (MIC) assay. Bacterial strains were purchased from DSMZ (Brunswick, Germany) except M. luteus which was obtained from NCIMB, and stored in 20% glycerol at −80° C. Stock solutions (100% DMSO) of positive controls (azithromycin and erythromycin), and of test compounds 1 and 2 were diluted in broth to working stock concentrations of 256 μg/ml (final assay testing concentration range 128 μg/ml to 0.00391 μg/ml). Stock solutions of all other compounds were diluted in broth to working stock concentrations of 128 μg/ml (final assay testing concentration range 64 μg/ml to 0.00195 μg/ml). Bacterial strains were cultivated in appropriate broth in an anaerobic chamber at 37° C., except for M. luteus which was incubated aerobically at 37° C. 18 h cultures were diluted in broth to an OD595 of 0.1 and then further diluted 1:10. In 96-well plates, in duplicate, 200 μl working stock of test compound was transferred to well 1 and serially diluted (1:2) in broth. 100 μl bacterial suspension was aliquoted into each well and mixed thoroughly. Appropriate sterility controls were included and plates were incubated in an anaerobic chamber, or aerobically (M. luteus) at 37° C. for 18 h. The MIC was determined to be the concentration of test compound in the first well with no visible growth.
# Escherichia coli = test: Minimum Inhibitory Concentration (MIC) assay; assay type: cell-based; settings: anaerobic, 37° C., 18 h
# Description: as §1
# Lactobacillus casei = test: Minimum Inhibitory Concentration (MIC) assay; assay type: cell-based; settings: Lacticaseibacillus casei; anaerobic, 37° C., 18 h
# Description: as §1
# Micrococcus luteus = test: Minimum Inhibitory Concentration (MIC) assay; assay type: cell-based; settings: aerobic, 37° C., 18 h
# Description: as §1
# [2] = test system: Streptococcus salivarius subsp. salivarius; test: Minimum Inhibitory Concentration (MIC) assay; assay type: cell-based; settings: anaerobic, 37° C., 18 h
# Description: as §1
# [3] = test system: E. coli, S. salivarius, L. casei, B. longum or M. luteus; test: Direct antibacterial activity, summary over all strains tested; assay type: cell-based; settings: against the bacterial strains tested (Table 1)
# Description: as §1
# [4] = test system: peripheral blood mononuclear cells (PBMC); test: Marker expression on PBMC by flow cytometry; assay type: cell-based, human; settings: 24 h
# Description: Human peripheral blood mononuclear cells (PBMCs) were purified from healthy donors with Ficoll-Paque density centrifugation. Cells were cultured in complete RPMI-1640 media (Invitrogen) supplemented with 25 mM HEPES, L-glutamine, Sodium pyruvate (Sigma), 10% fetal bovine serum, 100 μg/mL penicillin and 100 μg/mL streptomycin (Hyclone) for 24-72 hours in 37° C., 5% CO2 and stimulated with and increasing concentrations of compound 1 and 2. Cells were then washed in PBS and stained with monoclonal antibodies specific for cell surface markers (BD Pharmingen) and analysed with flow cytomtetry using a BD FACS Canto II flow cytometer. All samples were tested in duplicates.
# (§2) Human peripheral blood mononuclear cells (PBMCs) were purified from healthy donors with Ficoll-Paque density centrifugation. Cells were cultured in complete RPMI-1640 medium (Invitrogen) supplemented with 25 mM HEPES, L-glutamine, Sodium pyruvate (Sigma), 10% fetal bovine serum, 100 μg/mL penicillin and 100 μg/mL streptomycin (Hyclone). Cells were stimulated for 24 h (study 1-4) or 48 h to 1 week (study 5) in 37° C., 5% CO2 with increasing concentrations of compound 1 and 2 in tissue culture plates. The cells were removed from the plate, washed in PBS and analysed for expression of cell specific surface markers and MHC class I with flow cytometry using monoclonal antibodies from BD Pharmingen and a FACS Canto II flow cytometer.
# [5] = test system: Monocytes differentiated into macrophages; test: CD80 expression on monocytes differentiated into macrophages; assay type: cell-based, human; settings: 24 h
# Description: as §2
# T cells in PBMC = test: T cell proliferation with IL-2, Cell Trace Violet, flow cytometry; assay type: cell-based, human; settings: 6 days, in the presence of IL-2
# Description: FIG. 7. CD4 T cell proliferation after 6 days stimulation with compound 1, measured with proliferation dye Celltrace violet (Invitrogen) and flow cytometry. Untreated cells (UNT) or compound A were used as controls.
# Study 6: PBMC were stimulated with compound 1 and cultured in RPMI media for 6 days in the presence of IL-2 (Miltenyi Biotechnologies) and Cell Trace Violet Dye (Invitrogen). Proliferation was measured with flow cytometry.
# [6] = test system: Macrophages from healthy donors; test: Cytokine/chemokine secretion from macrophages (cytometric bead assay); assay type: cell-based, human
# Description: FIG. 10: Interferon-gamma secretion (as measured by cytometric bead assay) from macrophages stimulated with indicated compound for 48 h.
# FIG. 11: Chemokine RANTES secretion (as measured by cytometric bead assay) from PBMC or macrophages stimulated with indicated compound for 48 h.
# FIG. 12: IL12p70 secretion (as measured by cytometric bead assay) from PBMC or macrophages stimulated with indicated compound for 48 h.
# (§3) FIG. 13: IL1b secretion (as measured by cytometric bead assay) from PBMC, macrophages or CD4 T cells stimulated with indicated compound for 48 h.
# Study 9: Macrophages from healthy donors where exposed to compounds 1 or 2 for 48 hours. […] Compound 1 is therefore able to induce IFN-gamma secretion in macrophages from healthy donors.
# Study 10: PBMCs and macrophages where exposed to compounds 1 or 2 for 2 days (FIG. 11).
# Study 11: PBMCs and macrophages where exposed to compounds 1 and 2 for 2 days.
# (§4) Study 12: PBMCs, macrophages and CD4+ T cells where exposed to compounds 1 and 2 for 2 days.
# CD4+ T cells = test: IL-1beta secretion from CD4+ T cells (cytometric bead assay); assay type: cell-based, human; settings: 2 days
# Description: as §3, §4
# C57bl/6 mice [7] = test: CD25 expression in blood of mice after i.v. injection; assay type: in vivo, mouse; settings: highest dose of 5 mg/kg, 24 h
# Description: FIG. 14: % CD25 high cells in blood of C57bl/6 mice injected 24 h previously with indicated dose of compound 1. CD25 expression was measured by flow cytometry.
# Study 13: Compound 1 was administered i.v. to C57bl/6 mice at 0.165 mg/kg to 5 mg/kg. CD25+ cell abundance was increased in animals receiving the highest dose of 5 mg/kg (FIG. 14), as was body weight in the same group (not shown).
# C57bl/6 mice [8] = test: MHC class I expression on CD11b+ splenocytes of mice after i.v. injection; assay type: in vivo, mouse; settings: spleen 24 h later
# Description: FIG. 15: % MHC class I high CD11b+ cells in spleen of 3 individual C57bl/6 mice injected 24 h previously with indicated compound. MHC class I and CD11 b expression was measured by flow cytometry.
# Study 14: Compound 1 or A was administered i.v. to C57bl/6 mice.
compound,measurement,setting,value
CC[C@H]1OC(=O)[C@H](C)[C@@H](O[C@H]2C[C@@H](N(C)C)[C@H](O)[C@@H](C)O2)[C@H](C)[C@@H](O)[C@](C)(O)C[C@@H](C)CN(C)[C@H](C)[C@@H](O)[C@]1(C)O [Compound 1],MIC,[1],> 64 µg/mL
same,MIC,Escherichia coli,> 64 µg/mL
same,MIC,Lactobacillus casei,> 64 µg/mL
same,MIC,Micrococcus luteus,> 256 µg/mL
same,MIC,[2],> 64 µg/mL
same,antibacterial activity,[3],no antibacterial activity
same,activation marker CD69 on B cells,[4]; 1 μM,upregulated
same,activation marker CD69 on CD4+ T cells,[4]; 1 μM,upregulated
same,MHC class I (HLA-ABC) on B-cells,[4],upregulation
same,MHC class I (HLA-ABC) on T-cells,[4],upregulation
same,MHC class II (HLA-DR) on monocytes,[4],upregulation
same,co-stimulatory molecule CD80 on monocytes,[4],upregulation
same,CD80 on macrophages,[5],upregulated
same,cytokine driven proliferation profile of T cells,T cells in PBMC,altered cytokine driven proliferation profile
same,"IL-1beta secretion, macrophages",[6]; 2 days,increased
same,"IL-12p70 secretion, macrophages",[6]; 2 days,secreted IL-12p70
same,expression of RANTES in macrophages,[6]; 2 days,induced a high expression
same,"IFN-gamma secretion, macrophages",[6]; 48 hours,secreted IFN-gamma
same,"IL-1beta secretion, CD4+ T cells",CD4+ T cells,no IL-1beta was induced
same,CD25+ cell abundance,C57bl/6 mice [7],increased
same,splenocyte cells (CD11b+) with high MHC I expression,C57bl/6 mice [8],induced an increase
